Patent publication US5719145A, “Amidine derivatives and platelet aggregation inhibitor containing the same” (Mitsui Toatsu Chemicals, Inc., priority 1996, dated 1998)
Counter-ions that a name gives are not always drawn.

Tests used:
[1] = tested on: guinea pig platelets (platelet-rich plasma); assay: In vitro inhibition of platelet aggregation in guinea pig (ADP-induced, PRP); type: cell-based; settings: Cavia porcellus, ADP final concentration 5 μM, read-out: Platelet aggregation inhibitory activity in guinea pig, IC50
Procedure: In vitro experiment of platelet aggregation inhibition
1. Inhibition of platelet aggregation in Guinea pig
Blood of male guinea pig was collected with an injection syringe which contains 3.8 % sodium citrate as an anticoagulant in a ratio of 1 volume to 9 volumes of the blood. Successively, the collected blood mixture was subjected to centrifugation at 120×g for 15 minutes at room temperature to obtain platelet-rich plasma (PRP). An aliquot of PRP was further subjected to centrifugation at 1,200×g for 15 minutes to obtain platelet-poor plasma (PPP). Numbers of the platelet in PRP were measured with an automatic platelet counter: Sysmex PL-100 (manufactured by Toa Iyodenshi Co.) and PRP was diluted with PPP so as to adjust a platelet concentration to be about 300,000 particles/ μl. Platelet aggregation was measured by the following procedure with a 6 channel aggregometer: HEMA TRACER 1 (manufactured by NKK Co.).
(§1) After incubation of 240 μl of PRP at 37° C. for 2 minutes, 30 μl of the solvent of specimen as a control or of the specimen in various concentrations was added to PRP. Further 2 minutes later, 30 μl of adenosine diphosphate (final concentration: 5μM) was added to induce platelet aggregation. An inhibition percentage was obtained by comparing the maximum aggregation of the specimen drug group with that of control. […]

[2] = biological target: T1, human fibrinogen receptor GP IIb/IIIa (Homo sapiens, UniProt P05106+P08514); assay: Binding inhibition of biotinylated fibrinogen to GP IIb/IIIa; settings: purified human GP IIb/IIIa, read-out: Inhibition of GPIIb/IIIa . Fibrinogen Binding, IC50
T1 construct: Concentrated and lyophilized human platelet (20 vial) (Organon Teknika Co.) was lysed; tissue Organon Teknika Co; host or cells: human platelets (lyophilized), lysed in Triton X-100
T1 sequence (P08514 32-887 limits assumed): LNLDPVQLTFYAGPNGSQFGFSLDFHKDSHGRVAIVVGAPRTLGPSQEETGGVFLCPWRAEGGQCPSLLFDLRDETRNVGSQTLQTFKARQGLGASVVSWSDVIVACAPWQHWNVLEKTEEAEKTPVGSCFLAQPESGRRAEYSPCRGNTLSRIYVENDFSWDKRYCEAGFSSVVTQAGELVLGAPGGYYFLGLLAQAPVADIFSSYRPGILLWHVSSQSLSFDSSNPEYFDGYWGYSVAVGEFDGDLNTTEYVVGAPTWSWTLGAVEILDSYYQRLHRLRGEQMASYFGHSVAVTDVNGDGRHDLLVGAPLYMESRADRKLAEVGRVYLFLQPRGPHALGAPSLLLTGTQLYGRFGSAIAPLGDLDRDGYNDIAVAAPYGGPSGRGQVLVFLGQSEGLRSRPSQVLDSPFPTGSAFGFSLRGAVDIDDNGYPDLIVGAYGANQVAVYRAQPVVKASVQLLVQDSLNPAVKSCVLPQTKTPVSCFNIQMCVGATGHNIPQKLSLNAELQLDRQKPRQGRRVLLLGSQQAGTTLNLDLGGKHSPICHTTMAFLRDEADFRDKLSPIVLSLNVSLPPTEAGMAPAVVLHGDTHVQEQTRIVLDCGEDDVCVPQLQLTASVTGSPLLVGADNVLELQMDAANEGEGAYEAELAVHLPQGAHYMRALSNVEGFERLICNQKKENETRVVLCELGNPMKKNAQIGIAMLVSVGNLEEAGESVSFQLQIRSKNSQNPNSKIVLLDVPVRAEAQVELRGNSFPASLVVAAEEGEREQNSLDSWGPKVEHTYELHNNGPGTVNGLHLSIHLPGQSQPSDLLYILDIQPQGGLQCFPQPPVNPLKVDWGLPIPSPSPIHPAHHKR
T1 sequence (P08514 891-1039 partner limits assumed): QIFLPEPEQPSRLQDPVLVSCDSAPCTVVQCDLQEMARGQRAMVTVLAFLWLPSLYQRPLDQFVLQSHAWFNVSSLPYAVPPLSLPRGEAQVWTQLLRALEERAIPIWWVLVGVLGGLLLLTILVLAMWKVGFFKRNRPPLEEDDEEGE
T1 sequence (P05106 27-788): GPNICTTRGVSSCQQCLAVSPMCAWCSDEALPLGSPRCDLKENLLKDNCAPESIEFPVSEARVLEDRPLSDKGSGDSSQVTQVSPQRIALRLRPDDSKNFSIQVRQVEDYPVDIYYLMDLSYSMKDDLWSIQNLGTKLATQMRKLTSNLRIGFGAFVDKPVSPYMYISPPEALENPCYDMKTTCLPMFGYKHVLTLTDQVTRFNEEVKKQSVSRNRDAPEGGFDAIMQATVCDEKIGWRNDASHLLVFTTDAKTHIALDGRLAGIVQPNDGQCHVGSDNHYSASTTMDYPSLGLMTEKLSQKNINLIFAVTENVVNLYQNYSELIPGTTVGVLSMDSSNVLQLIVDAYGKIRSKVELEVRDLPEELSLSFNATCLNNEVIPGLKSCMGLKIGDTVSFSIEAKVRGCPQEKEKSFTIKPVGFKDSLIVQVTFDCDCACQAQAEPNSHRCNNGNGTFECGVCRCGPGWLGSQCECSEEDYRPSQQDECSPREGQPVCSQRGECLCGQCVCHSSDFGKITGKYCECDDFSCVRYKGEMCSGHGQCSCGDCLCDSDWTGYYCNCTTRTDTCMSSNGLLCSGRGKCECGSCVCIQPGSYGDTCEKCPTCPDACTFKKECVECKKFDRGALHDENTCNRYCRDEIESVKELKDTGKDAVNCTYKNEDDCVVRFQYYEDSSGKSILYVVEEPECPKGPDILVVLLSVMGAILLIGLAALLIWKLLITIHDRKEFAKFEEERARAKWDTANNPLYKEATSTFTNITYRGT
Procedure: Experiment for binding inhibition between GP IIb/IIIa and fibrinogen
1. Purification of human fibrinogen receptor GP IIb/IIIa
Concentrated and lyophilized human platelet (20 vial) (Organon Teknika Co.) was lysed in an antienzymic solution (80 ml) (1% Triton X-100, 10 mM Tris-HCl, 150 mM NaCl, 1 mM CaCl2, 10 μM leupeptin, 1 mM phenylmethane sulfonyl fluoride, pH 7.4), allowed to incubate for an hour at 4° C., and centrifuged at 30,000×g for 15 minutes to recover the supernatant solution containing 150 mg of protein. The GP IIb/IIIa was purified according to the method of Phillips et al. [Methods in Enzymology Vol. 215, (J. J. Hawigar, Eds.), 244-263, Acedemic Press Inc., San Diego].
2. Preparation of biotinylated fibrinogen
Human fibrinogen Grade L (KABI Co.) was purified by using Shepharose CL-6B and Lysine-Sepharose. Thus purified human fibrinogen (2.3 mg/ml) was dialyzed for 3 hours with 0.1M aqueous sodium bicarbonate solution at room temperature and successively diluted to 1 mg/ml. To the solution (4.5 ml) obtained, NHC-LC-Biotin (2 mg) (Pierce Co.) was added and reacted for 1 hour at room temperature to biotinylate fibrinogen. The reaction mixture was dialyzed at 4° C. for 24 hours with TBS (20 mM Tris-HCl, 150 mM NaCl, 1 mM CaCl2, 1 mM MgCl2, pH 7.4) to obtain biotinylated fibrinogen.
3. Binding inhibition of biotinylated fibrinogen to GP IIb/IIIa
Specimen drugs were dissolved and diluted with TBS containing 1% BSA. To each solution, an equal volume of biotinylated fibrinogen (2 μg/ml) dissolved in TBS containing 1% BSA, was added. The inhibition percentage of specimen drugs were measured by the method of Mori et al. [Jpn. J. Thromb. Hemost., 2, 323-399 (1991) with small modification].
Purified GP IIb/IIIa was diluted to 1.5 μg/ml in TBS containing 0.0005% of Triton X-100. The GP IIb/IIIa solution was added to a 96 well microplate (E.I.A/R.I.A. Plate, Costar Co.) in a volume of 100 μl for each well, and incubated at 4° C. for 24 hours to immobilize GP IIb/IIIa. The microplate was washed twice with a washing solution (TBS containing 0.01% of Tween 20). Thereafter TBS containing 3.5% of BSA was added to each well in a volume of 200 μl and blocking was carried out for about an hour at room temperature. The microplate was further washed twice with the washing solution, and successively a mixture of the specimen drug and the biotinylated fibrinogen was added in a volume of 100 μl/well and incubated for 24 hours at room temperature. The microplate was thereafter washed five times, and peroxidase-labeled streptoavidin (a kit of Amersham Co.) which was previously diluted 3000 times with TBS was added in a volume of 100 μl/well and incubated for about 30 minutes at room temperature. After washing the microplate 5 times, a 0.05M phosphate-citrate buffer solution (pH5) containing o-phenylenediamine(0.4 mg/ml) (manufactured by Sigma Co.) and H2 O2 (0.012%) was added in a volume of 200 μl/well to develop color for 20-40 minutes. The reaction was stopped by addition of 0.3M sulfuric acid in a volume of 50 μl/well and absorbance at 490 nm was measured with Immunoreader NJ-200 (manufactured by Inter Med Co.). […]

[3] = tested on: human platelets (platelet-rich plasma); assay: In vitro inhibition of platelet aggregation in human (ADP-induced, PRP); type: cell-based; settings: ADP final concentration 5 μM, read-out: Platelet aggregation inhibitory activity in human, IC50
Procedure: 2. Inhibition of platelet aggregation in human
Blood was collected from healthy human volunteers with an injection syringe and mixed one volume of 3.8% of sodium citrate as an anticoagulant to 9 volumes of the blood. Successively, the obtained blood mixture was subjected to centrifugation at 120×g for 15 minutes at room temperature to obtain platelet-rich plasma (PRP). An aliquot of PRP was further subjected to centrifugation at 1,200×g for 20 minutes to obtain platelet-poor plasma (PPP). Numbers of the platelet were measured with an automatic platelet counter: Sysmex PL-100 (manufactured by Toa Iyodenshi Co.) and PRP was diluted with PPP so as to adjust a platelet concentration to be about 250,000 particles/μl. Platelet aggregation was measured by the following procedure with a 6 channel aggregometer: HEMA TRACER 1 (manufactured by NKK Co.)
as §1, with “or” for “or of”, “5 μM)” for “5μM)”

[4] = tested on: guinea pig platelets (platelet-rich plasma); assay: Inhibition against platelet aggregation ability after oral administration in guinea pig; type: in vivo; settings: Cavia porcellus, 1 h, oral administration: 37 μmol/kg, blood collected after an hour, ADP 5 μM, read-out: Aggregation inhibiting rate (%)
Procedure: Experiment for inhibition against platelet aggregation ability after oral administration The specimen drug was dissolved or suspended at a concentration of 18.5 μmol/ml in a physiological saline containing 0.5% of Tween 80. […] A physiological saline containing 0.5% of Tween 80 was similarly administered as a control. […] The blood mixture was centrifuged at 800 r.p.m. for 20 minutes at room temperature to obtain PRP in the upper layer. The lower layer was further centrifuged at 3000 r.p.m. for 15 minutes to obtain PPP in upper layer. […] Platelet aggregation ability was measured according to the method for measuring in vitro platelet aggregation. […] HEMA TRACER 1 (manufactured by NKK Co.). After incubation of PRP at 37° C. for 2 minutes, a physiological saline (30 μl) was added. […] An inhibiting ratio was obtained by comparing the maximum aggregation of the specimen drug group with that of control.

Q: Which IC50 [1] does the source give for `C#CCNC(=N)c1ccc(C(=O)Nc2ccc3c(c2)CC(CC(=O)O)CO3)cc1` (single isomer, unassigned; (-)) [Example 50, (-)-6-[[4-(N^2-propargylamidino)benzoyl]amino]chroman-3-acetic acid hydrochloride] here?
A: 200 nM

Q: What about the IC50 [2] of the same compound?
A: 0.22 nM

Q: And the IC50 [3]?
A: 44 nM

Q: For `N=C(NCc1cccs1)c1ccc(C(=O)Nc2ccc3c(c2)CC(CC(=O)O)CC3)cc1` (stereo not shown) [Example 37, 7-[[4-[N^2-(2-thenyl)amidino]benzoyl]amino]-1,2,3,4-tetrahydronaphthalene-2-acetic acid hydrochloride], which IC50 [1] is on record?
A: 220 nM

Q: And the IC50 [2]?
A: 0.04 nM

Q: Which IC50 [1] does the source give for `C#CCN=C(N)c1ccc(C(=O)Nc2ccc3c(c2)CC(CC(=O)O)CC3)cc1` (stereo not shown) [Example 25, 7-[[4-(N^2-propargylamidino)benzoyl]amino]-1,2,3,4-tetrahydronaphthalene-2-acetic acid hydrochloride] here?
A: 280 nM

Q: And the IC50 [2]?
A: 0.18 nM

Q: And the IC50 [3]?
A: 100 nM

Q: With `CN1CCN(C(=N)c2ccc(C(=O)Nc3ccc4c(c3)CC(CC(=O)O)CC4)cc2)CC1` (stereo not shown) [Example 15, dihydrochloride] as the compound, how does the IC50 [3] read?
A: 110 nM

Q: Which IC50 [3] does the source give for `C#CCNC(=N)c1ccc(C(=O)Nc2ccc3c(c2)CC(CC(=O)O)CO3)cc1` (stereo not shown) [Example 27, 6-[[4-(N^2-propargylamidino)benzoyl]amino]chroman-3-acetic acid hydrochloride] here?
A: 78 nM

Q: What does the source list for `N=C(c1ccc(C(=O)Nc2ccc3c(c2)CC(CC(=O)O)CO3)cc1)N1CCOCC1` (single isomer, unassigned; (-)) [Example 52, (-)-6-[[4-(morpholinoiminomethyl)benzoyl]amino]chroman-3-acetic acid hydrochloride]?
A: IC50 [1]: 110 nM; IC50 [2]: 0.13 nM; IC50 [3]: 35 nM

Q: Which results are given for `C#CCNC(=N)c1ccc(C(=O)Nc2ccc3c(c2)CC(CC(=O)O)CC3)cc1` (single isomer, unassigned; (-)) [Example 46, (-)-7-[[4-(N^2-propargylamidino)benzoyl]amino]-1,2,3,4-tetrahydronaphthalene-2-acetic acid hydrochloride]?
A: IC50 [1]: 150 nM; IC50 [2]: 0.11 nM; IC50 [3]: 29 nM

Q: `N=C(c1ccc(C(=O)Nc2ccc3c(c2)CC(CC(=O)O)CO3)cc1)N1CCOCC1` (stereo not shown) [Example 5, 6-[[4-(morpholinoiminomethyl)benzoyl]amino]chroman-3-acetic acid hydrochloride] was tested. Which IC50 [3] did it give?
A: 66 nM

Q: How did the IC50 [2] turn out when `N=C(c1ccc(C(=O)Nc2ccc3c(c2)CC(CC(=O)O)CC3)cc1)N1CCCCC1` (stereo not shown) [Example 18, 7-[[4-(piperidinoiminomethyl)benzoyl]amino]-1,2,3,4-tetrahydronaphthalene-2-acetic acid hydrochloride] was run?
A: 0.26 nM

Q: What about the IC50 [3] of the same compound?
A: 140 nM

Q: `N=C(c1ccc(C(=O)Nc2ccc3c(c2)OCC(CC(=O)O)C3)cc1)N1CCOCC1` (stereo not shown) [Example 9, 7-[[4-(morpholinoiminomethyl)benzoyl]amino]chroman-3-acetic acid hydrochloride] was tested. Which IC50 [3] did it give?
A: 171 nM

Q: For `C#CCN(C)C(=N)c1ccc(C(=O)Nc2ccc3c(c2)CC(CC(=O)O)CC3)cc1` (stereo not shown) [Example 35, 7-[[4-(N^2-methyl-N^2-propargylamidino)benzoyl]amino]-1,2,3,4-tetrahydronaphthalene-2-acetic acid hydrochloride], which IC50 [3] is on record?
A: 160 nM

Q: Which IC50 [1] does the source give for `CCCN=C(N)c1ccc(C(=O)Nc2ccc3c(c2)CC(CC(=O)OCC)CC3)cc1` (stereo not shown) [Reference Example 9, ethyl 7-[[4-[N^2-(n-propyl)amidino]benzoyl]amino]-1,2,3,4-tetrahydronaphthalene-2-acetate hydrochloride, reference compound] here?
A: 520 nM

Q: What about the inhibition at 37 µmol/kg [4] of the same compound?
A: 3%

Q: What does the source list for `NC(=NCc1ccco1)c1ccc(C(=O)Nc2ccc3c(c2)CC(CC(=O)O)CC3)cc1` (stereo not shown) [Example 30, 7-[[4-[N^2-(2-furfuryl)amidino]benzoyl]amino]-1,2,3,4-tetrahydronaphthalene-2-aceticacid hydrochloride]?
A: IC50 [1]: 180 nM; IC50 [2]: 0.14 nM

Q: Which results are given for `N=C(c1ccc(C(=O)Nc2ccc3c(c2)CC(CC(=O)O)CC3)cc1)N1CCSCC1` (stereo not shown) [Example 13, 7-[[4-(thiomorpholinoiminomethyl)benzoyl]amino]-1,2,3,4-tetrahydronaphthalene-2-acetic acid hydrochloride]?
A: IC50 [1]: 170 nM; IC50 [2]: 0.28 nM; IC50 [3]: 60 nM

Q: Which IC50 [3] does the source give for `N=C(NCc1ccco1)c1ccc(C(=O)Nc2ccc3c(c2)CN(CC(=O)O)CC3)cc1` [Example 33, 7-[[4-[N^2-(2-furfuryl)amidino]benzoyl]amino]-1,2,3,4-tetrahydroisoquinoline-2-acetic acid dihydrochloride] here?
A: 160 nM

Q: Which IC50 [1] does the source give for `CCOC(=O)CC1CCc2ccc(NC(=O)c3ccc(C(=N)N4CCOCC4)cc3)cc2C1` (stereo not shown) [Example 1, ethyl 7-[[4-(morpholinoiminomethyl)benzoyl]amino]-1,2,3,4-tetrahydronaphthalene-2-acetate hydrochloride] here?
A: 180 nM

Q: What about the inhibition at 37 µmol/kg [4] of the same compound?
A: > 90%
